Assays:
[1] = tested on: human peripheral blood mononuclear cells (PBMC); experiment: TNF-α secretion by human PBMC (ELISA); assay type: cell-based; conditions: 24 h
Description: Peripheral blood from healthy donors (Centre de transfusion, Hôpital Universitaire, Geneva) was centrifuged to get the buffy coat. The buffy coat was mixed with Hanks' balanced saline solution (HBSS, Sigma, Buchs, Switzerland), layered over Ficoll Paque Plus (Amersham Pharmacia) to 1.077 g/mL and centrifuged (2800 rpm, 20° C., 25 min). Cells harvested from the interphase were washed twice in HBSS at 800 rpm for 15 min at room temperature and the pelleted cells were resuspended in HBSS. The cell counts were performed using a Neubauer cell. All cell cultures were performed in RPMI-1640 medium supplemented with penicillin (100 U/mL), streptomycin (100 μg/mL), L-glutamine (2 mmol/L) and 10% fetal calf serum (FCS), all obtained from Sigma. For in vitro stimulation, the cells were cultured at a concentration of 1×10^6 viable cells/well.
PBMC were incubated at 37° C. and under 5% CO2 atmosphere with the controls (see below) and with the products of the invention at 1, 5, and 20 μg/mL for IL-6, and at 0.2, 2, and 20 μg/mL for TNF-α secretion. Medium: RPMI alone.
The surpernatants of the cultures were harvested after 24 h and the concentration of IL-6 and TNF-α were measured by an enzyme-linked immunosorbent assay (ELISA) (Human IL-6 and TNF-α ELISA Set, BD OptEIA, San Diego, USA), according to the manufacturer instructions. The detection limits were 10 and 8 pg/mL respectively.

[2] = tested on: THP1-Blue cells (express naturally both TLR2 and TLR4); experiment: THP1-Blue NF-κB/AP-1-inducible SEAP reporter; assay type: cell-based, human; conditions: for Optical density read at 625 nm, mean of duplicates: 48 h
Description: A first series of experiment was performed on THP-1 cells, which express naturally both TLR2 and TLR4. THP-1 cells are human peripheral blood monocytic cells. Monocytes play a key role in innate immunity and express most TLRs at various levels. As for the primary cells, THP-1 cells activate NF-κB and other transcription factors in response to TLR ligands
To facilitate analysis of TLR response in monocytes, InvivoGen (Toulouse, France) provides THP-1 clones stably transfected with an NF-κB-inducible reporter system, called THP1-Blue™. THP-1 Blue cells were stably transfected with a reporter plasmid expressing a secreted embryonic alkaline phosphatase (SEAP) gene under the control of a promoter inducible by several transcription factors such as NF-κB and AP-1. Upon TLR stimulation, THP1-Blue™ cells activate transcription factors and subsequently the secretion of SEAP which is easily detectable when using QUANTI-Blue\u2122a medium that turns purple/blue in the presence of SEAP.
The cells were stimulated with the controls and compounds of the invention according to manufacturer's instructions. Results: Increased OD at 625 Nm after 48 Hours: The results for the controls (negative=LPS K12CD25 ultrapure, a TLR4 agonist; and PAM3CSK4=positive, a TLR2 agonist) are provided in the table below. The results (expressed as OD of arbitrary units) show the mean values (from duplicate measures) of Optical density read at 625 nm, 48 h after stimulation at 37° C. with the controls (up to 1000 ng/ml): […]

[3] = target: T1, TLR2 and CD14 (Homo sapiens, UniProt O60603); experiment: HEK-TLR2-CD14 IL-8 secretion; assay type: cell-based; conditions: 24 h
T1 construct: expressed in transfected cells; host or cells: HEK (HEK-TLR2-CD14 cell line)
T1 sequence (O60603 21-784): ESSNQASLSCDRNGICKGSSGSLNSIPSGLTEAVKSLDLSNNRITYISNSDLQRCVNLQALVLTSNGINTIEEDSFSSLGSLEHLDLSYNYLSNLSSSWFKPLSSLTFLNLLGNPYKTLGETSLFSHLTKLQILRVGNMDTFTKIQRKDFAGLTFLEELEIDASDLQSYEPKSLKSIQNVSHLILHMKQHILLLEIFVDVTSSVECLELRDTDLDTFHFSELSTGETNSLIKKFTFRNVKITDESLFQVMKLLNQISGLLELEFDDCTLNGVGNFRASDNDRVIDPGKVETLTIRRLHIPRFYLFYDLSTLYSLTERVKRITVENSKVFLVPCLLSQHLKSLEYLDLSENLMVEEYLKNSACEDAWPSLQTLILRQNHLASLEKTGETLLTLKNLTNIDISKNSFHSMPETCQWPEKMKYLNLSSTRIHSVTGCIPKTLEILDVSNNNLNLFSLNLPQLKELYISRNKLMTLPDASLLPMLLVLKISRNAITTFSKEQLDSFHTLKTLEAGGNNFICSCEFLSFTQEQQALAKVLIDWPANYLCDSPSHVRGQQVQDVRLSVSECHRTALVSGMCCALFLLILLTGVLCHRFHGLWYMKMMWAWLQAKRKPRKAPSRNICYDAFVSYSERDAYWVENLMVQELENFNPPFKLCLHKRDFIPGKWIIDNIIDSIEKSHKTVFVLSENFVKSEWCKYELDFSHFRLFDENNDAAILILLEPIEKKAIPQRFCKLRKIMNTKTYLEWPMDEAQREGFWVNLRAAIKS
Description: (§1) The HEK293 cell line was chosen for its null or low basal expression of the TLR genes. These cells enable efficient monitoring of TLR activity using ELISA analysis such as IL-8 titration or reporter-based systems that monitor TLR-induced NF-κB activation. HEK-TLR2 cells (Invivogen, Toulouse, France) are engineered HEK293 cells stably transfected with multiple genes from the TLR2 pathway that include TLR2 and genes participating in the recognition or involved in the signaling cascade. These cells secrete IL-8 after TLR2 stimulation. The experiments were performed according to manufacturers' instructions. Briefly, 2×10^4 cells/well (200 ul RPMI) are incubated at 37° C. during 3 days (5% CO2). The medium is removed, and 90 ul RPMi+5% FCS is added to the wells Then the agonists and controls are added (10 ul/well). The cells return to the incubator for 24 hours. The supernatants are collected and the IL-8 ELISA is performed according to manufacturer's instructions These preliminary results were confirmed in another cell line expressing concomitantly TLR2 and CD14. The procedure used is similar to the one described just above.

[4] = target: T2, TLR4 (Homo sapiens, UniProt O00206+Q9Y6Y9); experiment: HEK-MD2-TLR4-CD14 IL-8 secretion; assay type: cell-based; conditions: 24 h
T2 construct: expressed in transfected cells; host or cells: HEK293
T2 sequence (O00206 24-839): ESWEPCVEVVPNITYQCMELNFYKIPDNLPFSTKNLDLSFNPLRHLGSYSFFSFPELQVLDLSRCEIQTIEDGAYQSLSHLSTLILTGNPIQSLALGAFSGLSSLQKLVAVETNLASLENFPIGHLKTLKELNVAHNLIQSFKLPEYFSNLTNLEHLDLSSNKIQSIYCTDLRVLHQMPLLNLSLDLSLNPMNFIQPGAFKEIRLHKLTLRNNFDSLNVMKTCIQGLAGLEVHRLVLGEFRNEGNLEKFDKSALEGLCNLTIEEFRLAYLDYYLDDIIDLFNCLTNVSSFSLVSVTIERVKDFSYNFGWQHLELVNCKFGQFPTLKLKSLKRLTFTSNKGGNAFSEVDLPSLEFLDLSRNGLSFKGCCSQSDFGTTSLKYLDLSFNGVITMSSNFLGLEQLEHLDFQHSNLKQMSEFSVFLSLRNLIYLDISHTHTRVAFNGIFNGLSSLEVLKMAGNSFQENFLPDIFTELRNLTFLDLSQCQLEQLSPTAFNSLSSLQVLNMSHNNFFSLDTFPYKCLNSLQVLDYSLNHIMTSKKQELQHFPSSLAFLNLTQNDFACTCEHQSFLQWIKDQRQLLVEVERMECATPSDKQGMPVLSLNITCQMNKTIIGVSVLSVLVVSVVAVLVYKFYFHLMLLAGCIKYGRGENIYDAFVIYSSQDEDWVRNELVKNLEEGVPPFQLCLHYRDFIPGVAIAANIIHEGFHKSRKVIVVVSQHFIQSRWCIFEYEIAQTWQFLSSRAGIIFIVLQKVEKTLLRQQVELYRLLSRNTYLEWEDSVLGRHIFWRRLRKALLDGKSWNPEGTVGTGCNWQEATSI
T2 sequence (Q9Y6Y9 17-160 limits assumed): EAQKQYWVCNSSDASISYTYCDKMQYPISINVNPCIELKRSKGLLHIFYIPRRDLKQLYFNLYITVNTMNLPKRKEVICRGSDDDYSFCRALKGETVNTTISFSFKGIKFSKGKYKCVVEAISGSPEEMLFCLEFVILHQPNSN
Description: as §1, with “instructions” for “instructions These preliminary results were confirmed in another cell line expressing concomitantly TLR2 and CD14. The procedure used is similar to the one described just above.”
HEK-MD2-TLR4-CD14 are highly sensitive to LPS. They were obtained by stable transfection of HEK293 cells with the TLR4, MD2 and CD14 genes and an NF-κB-inducible reporter system. They secrete IL-8. We used the same experimental procedure as for the other HEK cell lines described above.

Structure (SMILES): CCCCCCCCCCCC(=O)O[C@H](CCCCCCCCCCC)CC(=O)N[C@H]1[C@H](OC[C@H]2O[C@H](OCC(O)CO)[C@H](NC(=O)C[C@H](O)CCCCCCCCCCC)[C@@H](O)[C@@H]2O)O[C@H](CO)[C@@H](OP(=O)(O)O)[C@@H]1O (stereo partly drawn) [compound 19, 2,3-Dihydroxypropyl-2-Deoxy-6-O-[2-deoxy-4-O-(dihydroxyphosphoryl)-2-[(R)-3-dodecanoyloxytetradecanoylamino]-β-D-glucopyranosyl]-2-[(R)-3-hydroxytetradecanoylamino]-α-D-glucopyranoside]
- TNF-α ([1]; 0.2 μg/ml): 9.2 pg/mL
- TNF-α ([1]; 2 μg/ml): 5.1 pg/mL
- TNF-α ([1]; 20 μg/ml): 11.2 pg/mL
- activation of THP-1 cells (in words) [2]: good activators of THP-1 cells
- Optical density read at 625 nm, mean of duplicates ([2]; 14 ng/ml): 0.15 OD
- Optical density read at 625 nm, mean of duplicates ([2]; 41 ng/ml): 0.13 OD
- Optical density read at 625 nm, mean of duplicates ([2]; 124 ng/ml): 0.17 OD
- Optical density read at 625 nm, mean of duplicates ([2]; 370 ng/ml): 0.24 OD
- Optical density read at 625 nm, mean of duplicates ([2]; 1111 ng/ml): 0.37 OD
- Optical density read at 625 nm, mean of duplicates ([2]; 3333 ng/ml): 0.58 OD
- Optical density read at 625 nm, mean of duplicates ([2]; 10000 ng/ml): 0.77 OD
- IL-8 secretion, mean ([3]; 14 ng/ml): 0.05 pg/mL
- IL-8 secretion, mean ([3]; 41 ng/ml): 0.03 pg/mL
- IL-8 secretion, mean ([3]; 124 ng/ml): 0.11 pg/mL
- IL-8 secretion, mean ([3]; 370 ng/ml): 0.10 pg/mL
- IL-8 secretion, mean ([3]; 1111 ng/ml): 0.17 pg/mL
- IL-8 secretion, mean ([3]; 3333 ng/ml): 0.26 pg/mL
- IL-8 secretion, mean ([3]; 10000 ng/ml): 0.65 pg/mL
- IL-8 secretion, mean ([4]; 14 ng/ml): 1.69 pg/mL
- IL-8 secretion, mean ([4]; 41 ng/ml): 1.64 pg/mL
- IL-8 secretion, mean ([4]; 124 ng/ml): 1.56 pg/mL
- IL-8 secretion, mean ([4]; 370 ng/ml): 1.67 pg/mL
- IL-8 secretion, mean ([4]; 1111 ng/ml): 1.73 pg/mL
- IL-8 secretion, mean ([4]; 3333 ng/ml): 1.88 pg/mL
- IL-8 secretion, mean ([4]; 10000 ng/ml): 1.96 pg/mL

Reference: patent publication US20100168054A1, “Functionalized Beta 1,6 Glucosamine Disaccharides and Process for Their Preparation” (OM PHARMA, priority 2006, published 2010)
